What all share (assay type): cell-based
The subject of one assay is RERF-LC-A1 cell line. Briefly: Anti proliferative activity, Cell Titer Glo assay, RERF-LC-A1. The following applies: 144 h; RERF-LC-A1 cells, terminated day 6 without retreatment, CellTiter-Glo. The method, then:
(§1) Example-P3: Determination of Anti Proliferative Activity of Compounds by Cell Titer Glo®(Promega) Assay
(§2) Cells were seeded into 96-well plates and the plate was incubated in 37 degrees incubator overnight. The next day, compounds were diluted 3-fold to cover 9-point concentration range in DMSO. Intermediate plate dilution was prepared in media followed with compound treatment in cells. Retreatment of cells with compound dilutions was performed on Day 4 and assay was terminated on day 8 for SK-MEL-5 cells using CellTiter-Glo and the plate was kept on orbital shaker for 20 minutes at RT. Assay was terminated on day 6 for RERF-LC-A1 without a compound retreatment. Luminescence signal was recorded on VICTOR^3 instrument. Percent inhibition of proliferation was calculated at each concentration and plotted against the compound concentration. EC50 value was calculated using GraphPad software.
Herein the group “++” refers to EC50 (RERF-LC-A1) values lower than 100 nM and “+” refers to EC50 (RERF-LC-A1) values greater than 100 nM.

A further assay addresses T1, SMARCA2 (Homo sapiens, UniProt P51531).
T1 construct: Determination of SMARCA2 and SMARCA4 Degradation in VCaP Cells by Western Blot; endogenous in cells; host or cells: VCaP (ATCC CRL-2876)
Briefly: SMARCA2 degradation in VCaP cells by Western blot. As to conditions: 16 hours. The method, boiled down: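 VCaP cells were treated with compound for 16 hours, with DMSO at no more than 0.3% final. Lysates were immunoblotted for SMARCA2, using beta-tubulin as loading control. % degradation = 100 − (normalized band intensity treated/normalized band intensity DMSO)×100.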
A general note: Immunoblotting shows a protein as a band on a membrane.

Another assay has as its target T2, SMARCA4 (Homo sapiens, UniProt P51532).
T2 construct: Determination of SMARCA2 and SMARCA4 Degradation in VCaP Cells by Western Blot; endogenous in cells; host or cells: VCaP (ATCC CRL-2876)
Briefly: SMARCA4 degradation in VCaP cells by Western blot. The following applies: 16 hours. The procedure, abridged:
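VCaP cells treated with compounds diluted from DMSO stocks, final DMSO ≤0.3%; equal protein analysed by SDS-PAGE Western blot. Degradation = 100 − (normalized SMARCA4 band in treated/DMSO sample)×100.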

A further assay concerns SK-MEL-5 cells. Description: Anti proliferative activity, Cell Titer Glo assay, SK-MEL-5. The following applies: Homo sapiens, SK-MEL-5, SK-MEL-5 cells, retreatment Day 4, terminated day 8, CellTiter-Glo. The method, then: as §1, §2
Background: In ATP-based viability assays light output follows the ATP content of the culture.

pEC50: −log10 of the molar value.

T2 sequence (P51532 whole entry): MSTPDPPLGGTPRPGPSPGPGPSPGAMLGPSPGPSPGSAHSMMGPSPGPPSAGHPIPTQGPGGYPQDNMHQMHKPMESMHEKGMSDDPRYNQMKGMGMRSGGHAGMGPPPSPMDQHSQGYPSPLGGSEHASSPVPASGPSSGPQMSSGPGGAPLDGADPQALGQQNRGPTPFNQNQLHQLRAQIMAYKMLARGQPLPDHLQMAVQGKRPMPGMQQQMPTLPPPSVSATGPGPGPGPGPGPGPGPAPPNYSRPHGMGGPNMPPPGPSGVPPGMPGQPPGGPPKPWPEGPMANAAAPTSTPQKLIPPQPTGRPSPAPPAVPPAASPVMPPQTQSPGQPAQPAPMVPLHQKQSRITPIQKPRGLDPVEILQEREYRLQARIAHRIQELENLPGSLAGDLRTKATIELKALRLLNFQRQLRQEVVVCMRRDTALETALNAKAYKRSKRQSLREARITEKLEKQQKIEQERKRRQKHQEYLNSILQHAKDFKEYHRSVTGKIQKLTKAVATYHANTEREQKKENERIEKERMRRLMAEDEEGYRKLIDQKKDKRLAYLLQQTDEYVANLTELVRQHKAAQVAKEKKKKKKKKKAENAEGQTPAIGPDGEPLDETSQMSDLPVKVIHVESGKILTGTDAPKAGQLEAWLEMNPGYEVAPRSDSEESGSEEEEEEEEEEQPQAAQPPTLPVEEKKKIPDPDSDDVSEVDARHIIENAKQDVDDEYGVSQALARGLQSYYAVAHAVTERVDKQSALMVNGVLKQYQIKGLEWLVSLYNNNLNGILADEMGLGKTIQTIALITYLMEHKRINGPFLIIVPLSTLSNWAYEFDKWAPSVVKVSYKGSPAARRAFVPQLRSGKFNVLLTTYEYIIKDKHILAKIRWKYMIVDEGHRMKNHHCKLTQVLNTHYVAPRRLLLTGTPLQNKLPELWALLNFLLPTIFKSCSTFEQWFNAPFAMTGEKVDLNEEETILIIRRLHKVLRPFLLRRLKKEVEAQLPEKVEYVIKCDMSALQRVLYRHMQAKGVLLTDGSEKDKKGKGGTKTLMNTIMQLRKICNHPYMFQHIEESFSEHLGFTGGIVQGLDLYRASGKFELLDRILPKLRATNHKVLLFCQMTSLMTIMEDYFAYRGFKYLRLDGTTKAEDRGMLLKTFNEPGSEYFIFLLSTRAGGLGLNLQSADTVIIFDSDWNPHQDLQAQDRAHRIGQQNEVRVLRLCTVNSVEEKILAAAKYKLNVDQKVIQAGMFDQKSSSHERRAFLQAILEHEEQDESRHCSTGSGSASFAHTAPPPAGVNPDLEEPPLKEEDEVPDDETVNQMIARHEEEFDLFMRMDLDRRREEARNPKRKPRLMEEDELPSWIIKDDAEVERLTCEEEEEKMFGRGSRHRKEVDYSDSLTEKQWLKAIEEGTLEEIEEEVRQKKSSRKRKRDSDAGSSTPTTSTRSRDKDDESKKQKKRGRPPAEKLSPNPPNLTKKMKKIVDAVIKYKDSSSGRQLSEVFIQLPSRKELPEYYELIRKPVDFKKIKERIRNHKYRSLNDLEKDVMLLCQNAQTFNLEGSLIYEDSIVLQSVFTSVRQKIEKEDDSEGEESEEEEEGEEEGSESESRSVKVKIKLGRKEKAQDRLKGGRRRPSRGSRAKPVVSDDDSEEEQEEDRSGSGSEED
T1 sequence (P51531 whole entry): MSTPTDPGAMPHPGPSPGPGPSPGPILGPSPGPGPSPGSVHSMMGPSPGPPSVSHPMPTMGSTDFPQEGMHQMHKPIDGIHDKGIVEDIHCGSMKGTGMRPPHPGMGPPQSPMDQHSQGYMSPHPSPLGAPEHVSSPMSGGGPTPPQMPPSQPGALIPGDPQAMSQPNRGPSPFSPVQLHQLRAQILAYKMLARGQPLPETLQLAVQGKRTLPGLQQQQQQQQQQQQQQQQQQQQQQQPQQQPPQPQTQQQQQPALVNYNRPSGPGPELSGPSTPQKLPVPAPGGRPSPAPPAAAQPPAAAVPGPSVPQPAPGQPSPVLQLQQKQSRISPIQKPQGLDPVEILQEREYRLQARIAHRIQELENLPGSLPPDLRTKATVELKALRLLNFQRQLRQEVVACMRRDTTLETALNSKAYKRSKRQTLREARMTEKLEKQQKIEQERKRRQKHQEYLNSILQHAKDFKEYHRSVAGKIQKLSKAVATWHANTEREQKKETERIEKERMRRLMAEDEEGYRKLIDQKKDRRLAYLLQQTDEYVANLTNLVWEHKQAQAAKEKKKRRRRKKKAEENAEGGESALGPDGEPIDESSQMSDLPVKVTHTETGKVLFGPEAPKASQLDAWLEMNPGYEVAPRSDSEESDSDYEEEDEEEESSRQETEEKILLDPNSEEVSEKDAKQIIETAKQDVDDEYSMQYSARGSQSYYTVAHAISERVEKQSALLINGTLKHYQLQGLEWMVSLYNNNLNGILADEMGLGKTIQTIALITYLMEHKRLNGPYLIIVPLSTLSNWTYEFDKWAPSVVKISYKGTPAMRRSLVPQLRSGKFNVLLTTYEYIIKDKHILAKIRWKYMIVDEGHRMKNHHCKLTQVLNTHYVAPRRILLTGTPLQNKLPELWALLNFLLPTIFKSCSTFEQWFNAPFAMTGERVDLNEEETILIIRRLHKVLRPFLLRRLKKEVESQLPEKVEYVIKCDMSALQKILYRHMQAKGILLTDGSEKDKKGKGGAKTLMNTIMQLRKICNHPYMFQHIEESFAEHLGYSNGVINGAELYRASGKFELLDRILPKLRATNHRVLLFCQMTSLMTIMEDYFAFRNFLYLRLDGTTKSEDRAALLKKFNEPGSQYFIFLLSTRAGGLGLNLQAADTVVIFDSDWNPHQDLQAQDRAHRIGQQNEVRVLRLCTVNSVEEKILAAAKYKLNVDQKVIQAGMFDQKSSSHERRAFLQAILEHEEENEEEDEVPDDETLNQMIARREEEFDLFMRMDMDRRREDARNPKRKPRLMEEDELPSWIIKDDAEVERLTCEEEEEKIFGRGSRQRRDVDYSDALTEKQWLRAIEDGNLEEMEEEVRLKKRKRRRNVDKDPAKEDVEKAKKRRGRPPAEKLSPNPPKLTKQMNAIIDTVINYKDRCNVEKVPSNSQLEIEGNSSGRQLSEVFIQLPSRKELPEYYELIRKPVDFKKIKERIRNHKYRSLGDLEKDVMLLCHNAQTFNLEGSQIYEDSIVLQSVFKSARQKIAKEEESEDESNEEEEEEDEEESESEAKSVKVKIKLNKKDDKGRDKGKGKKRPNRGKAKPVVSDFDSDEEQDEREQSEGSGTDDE

Consider `Cc1ncsc1-c1ccc([C@H](C)NC(=O)[C@@H]2C[C@@H](O)CN2C(=O)[C@@H](NC(=O)CN2CCN(c3ccc(-c4cnnc(-c5ccccc5O)c4)cn3)CC2)C(C)(C)C)cc1` [Compound 5, (2S,4R)-4-hydroxy-1-((S)-2-(2-(4-(5-(6-(2-hydroxyphenyl)pyridazin-4-yl)pyridin-2-yl)piperazin-1-yl)acetamido)-3,3-dimethylbutanoyl)-N-((S)-1-(4-(4-methylthiazol-5-yl)phenyl)ethyl)pyrrolidine-2-carboxamide], for which the negative-log EC50 (pEC50) (in general, the EC50 on a negative log10 scale, so that one unit is a factor of ten) in the assay with RERF-LC-A1 cell line was under 7.00; in the assay on SK-MEL-5 cells, over 6.60. Further, the “Percent degradation (at 100 nM) SMARCA2” value on SMARCA2 came out at 94%. Besides, at SMARCA4, the “Percent degradation (at 100 nM) SMARCA4” value is reported as 0%.

For the compound `Cc1ncsc1-c1ccc([C@H](C)NC(=O)[C@@H]2C[C@@H](O)CN2C(=O)[C@@H](NC(=O)CC2CCN(c3ccc(-c4cnnc(-c5ccccc5O)c4)cc3)CC2)C(C)(C)C)cc1` [Compound 6, (2S,4R)-4-hydroxy-1-((S)-2-(2-(1-(4-(6-(2-hydroxyphenyl)pyridazin-4-yl)phenyl)piperidin-4-yl)acetamido)-3,3-dimethylbutanoyl)-N-((S)-1-(4-(4-methylthiazol-5-yl)phenyl)ethyl)pyrrolidine-2-carboxamide], the pEC50 in the assay on RERF-LC-A1 cell line was over 7.00; in the assay on SK-MEL-5 cells, over 6.60. Also, the “Percent degradation (at 100 nM) SMARCA2” value on SMARCA2 was determined as 97%. At SMARCA4, the “Percent degradation (at 100 nM) SMARCA4” value is given as 40%.

Regarding `Cc1ncsc1-c1ccc([C@H](C)NC(=O)[C@@H]2C[C@@H](O)CN2C(=O)[C@@H](NC(=O)CN2CC=C(c3ccc(-c4cnnc(-c5ccccc5O)c4)cc3)CC2)C(C)(C)C)cc1` [Compound 10, (2S,4R)-4-hydroxy-1-((S)-2-(2-(4-(4-(6-(2-hydroxyphenyl)pyridazin-4-yl)phenyl)-3,6-dihydropyridin-1(2H)-yl)acetamido)-3,3-dimethylbutanoyl)-N-((S)-1-(4-(4-methylthiazol-5-yl)phenyl)ethyl)pyrrolidine-2-carboxamide], the negative logarithm of the EC50 (pEC50) was over 7.00 with RERF-LC-A1 cell line and 6.30 to 6.60 in the assay with SK-MEL-5 cells. The “Percent degradation (at 100 nM) SMARCA2” value on SMARCA2 came out at 83%. Also, the “Percent degradation (at 100 nM) SMARCA4” value on SMARCA4 was 0%.

Take `Cc1ncsc1-c1ccc([C@H](C)NC(=O)[C@@H]2C[C@@H](O)CN2C(=O)[C@@H](NC(=O)CN2CCC(c3ccc(-c4cnnc(-c5ccccc5O)c4)cc3)CC2)C(C)(C)C)cc1` [Compound 11, (2S,4R)-4-hydroxy-1-((S)-2-(2-(4-(4-(6-(2-hydroxyphenyl)pyridazin-4-yl)phenyl)piperidin-1-yl)acetamido)-3,3-dimethylbutanoyl)-N-((S)-1-(4-(4-methylthiazol-5-yl)phenyl)ethyl)pyrrolidine-2-carboxamide]: the negative logarithm of the EC50 (pEC50) in the assay on RERF-LC-A1 cell line is over 7.00; in the assay with SK-MEL-5 cells, over 6.60. On SMARCA2, the “Percent degradation (at 100 nM) SMARCA2” value is reported as 91%. Besides, the “Percent degradation (at 100 nM) SMARCA4” value on SMARCA4 came to 0%.

As for `Cc1ncsc1-c1ccc(CNC(=O)[C@@H]2C[C@@H](O)CN2C(=O)[C@@H](NC(=O)CN2CCC(c3ccc(-c4cnnc(-c5ccccc5O)c4)cc3)CC2)C(C)(C)C)cc1` [Compound 12, (2S,4R)-4-hydroxy-1-((S)-2-(2-(4-(4-(6-(2-hydroxyphenyl)pyridazin-4-yl)phenyl)piperidin-1-yl)acetamido)-3,3-dimethylbutanoyl)-N-(4-(4-methylthiazol-5-yl)benzyl)pyrrolidine-2-carboxamide], the pEC50 with RERF-LC-A1 cell line was over 7.00; with SK-MEL-5 cells, under 6.30. Besides, the “Percent degradation (at 100 nM) SMARCA2” value at SMARCA2 was 75%. Besides, the “Percent degradation (at 100 nM) SMARCA4” value on SMARCA4 worked out at 0%.

On to `Cc1ncsc1-c1ccc([C@H](C)NC(=O)[C@@H]2C[C@@H](O)CN2C(=O)[C@@H](NC(=O)CN2CC3CCC(C2)N3c2ccc(-c3cnnc(-c4ccccc4O)c3)cc2)C(C)(C)C)cc1` [Compound 24, (2S,4R)-4-hydroxy-1-((2S)-2-(2-(8-(4-(6-(2-hydroxyphenyl)pyridazin-4-yl)phenyl)-3,8-diazabicyclo[3.2.1]octan-3-yl)acetamido)-3,3-dimethylbutanoyl)-N-((S)-1-(4-(4-methylthiazol-5-yl)phenyl)ethyl)pyrrolidine-2-carboxamide], for which the pEC50 with RERF-LC-A1 cell line was over 7.00; in the assay on SK-MEL-5 cells, over 6.60. Moreover, on SMARCA2, the “Percent degradation (at 100 nM) SMARCA2” value is 96%. The “Percent degradation (at 100 nM) SMARCA4” value on SMARCA4 is 15%.

The record behind these values is patent US12570650B2, “6-substituted pyridazine compounds as SMARCA2 and/or SMARCA4 degraders” (Aurigene Oncology Limited, priority 2020, dated 2026).
